Our source for the IC50 values is US20240174690A1, “ANNULATED 2-AMINO-3-CYANO THIOPHENES AND DERIVATIVES FOR THE TREATMENT OF CANCER” (BOEHRINGER INGELHEIM INTERNATIONAL GMBH, priority 2021, published 2024).

The target in test [1] is KRAS (G12C)::SOS1 (Homo sapiens (Human), UniProt P01116, C118S/C51S/C80L/G12C). The test can be described thus: KRAS::SOS1 AlphaScreen binding assay, KRAS G12C. From the text:
This assay can be used to examine the potency with which compounds according to the invention binding to (mutated) KRAS inhibit the protein-protein interaction between SOS1 and (mutated) KRAS e.g., KRAS WT, KRAS G12C, KRAS G12D, KRAS G12V, KRAS G13D. […] Low IC50 values in this assay setting are indicative of strong inhibition of protein-protein interaction between SOS1 and KRAS:
These assays measure the inhibitory effect of compounds on KRAS mutant protein-protein interactions using the Alpha Screen technology by Perkin Elmer.
The following (mutant) enzyme forms of KRAS and interacting proteins are used in these assays at the given concentrations: • KRAS (G12D) 1-169, N-terminal 6His-tag, C-terminal avi-tag (Xtal BioStructures, Inc.); final assay concentration 10 nM and SOS1 564-1049, N-terminal 229 GST-tag, TEV cleavage site (Viva Biotech Ltd); final assay concentration 5 nM; • KRAS (G12C) 1-169, N-terminal 6His-tag for purification, cleaved off, C-terminal avi-tag, biotinylated, mutations: C51S, C80L, C118S (in house); final assay concentration 7.5 nM and SOS1 564-1049, N-terminal 229 GST-tag, TEV cleavage site (Viva Biotech Ltd); final assay concentration 5 nM; • KRAS (G12V) 1-169, N-terminal 6His-tag for purification, cleaved off, C-terminal avi-tag, biotinylated, TEV cleavage site, mutation: C118S, GDP loaded (in house); final assay concentration 10 nM and SOS1 564-1049, N-terminal 229 GST-tag, TEV cleavage site (Viva Biotech Ltd); final assay concentration 10 nM; • KRAS (G13D) 1-169, N-terminal 6His-tag for purification, cleaved off, C-terminal avi-tag, biotinylated, TEV cleavage site, mutation: C118S, GDP loaded (in house); final assay concentration 10 nM and SOS1 564-1049, N-terminal 229 GST-tag, TEV cleavage site (Viva Biotech Ltd); final assay concentration 10 nM; • KRAS (WT) 1-169, N-terminal 6His-tag for purification, cleaved off, C-terminal avi-tag, biotinylated, TEV cleavage site, mutation: C118S, GDP loaded (in house); final assay concentration 10 nM and SOS1 564-1049, N-terminal 229 GST-tag, TEV cleavage site (Viva Biotech Ltd); final assay concentration 10 nM.
Test compounds dissolved in DMSO are dispensed onto assay plates (Proxiplate 384 PLUS, white, PerkinElmer; 6008289) using an Access Labcyte Workstation with the Labcyte Echo 55×. For the chosen highest assay concentration of 100 μM, 150 nL of compound solution are transferred from a 10 mM DMSO compound stock solution. A series of eleven fivefold dilutions per compound are transferred to the assay plate, compound dilutions are tested in duplicates. DMSO are added as backfill to a total volume of 150 nL.
The assays run on a fully automated robotic system in a darkened room below 100 Lux. To 150 nl of compound dilution 10 μl of a mix including KRAS mutant protein, SOS1 (final assay concentrations see above) and GDP nucleotide (Sigma G7127; final assay concentration 10 μM) in assay buffer (1×PBS, 0.1% BSA, 0.05% Tween 20) are added into columns 1-24.
After 30 minutes incubation time 5 μl of Alpha Screen bead mix in assay buffer are added into columns 1-23. Bead mix consists of AlphaLISA Glutathione Acceptor Beads (PerkinElmer, Cat No AL109) and AlphaScreen Streptavidin Donor Beads (PerkinElmer Cat No 6760002) in assay buffer at a final assay concentration of 10 μg/ml each.
Plates are kept at room temperature in a darkened incubator. After an additional 60 minutes incubation time the signal is measured in a PerkinElmer Envision HTS Multilabel Reader using the AlphaScreen specs from PerkinElmer.
Each plate contains up to 16 wells of a negative control depending on the dilution procedure (platewise or serial) (DMSO instead of test compound; with KRAS mutant::SOS1 GDP mix and bead mix; column 23) and 16 wells of a positive control (DMSO instead of test compound; with KRAS mutant::SOS1 GDP mix w/o bead mix; column 24).
As internal control known inhibitors of KRAS mutant::SOS1 interaction can be measured on each compound plate. […]

Test [2] deals with KRAS G12V-dependent Ba/F3 cells. The experiment in a line: Ba/F3 proliferation assay, KRAS G12V.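 Also: proliferation IC50 in KRAS G12V-dependent Ba/F3 cells read by AlamarBlue.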 Type of test: cell-based. Particulars: Mus musculus, BaF3, 72 h, AlamarBlue. On the procedure:
Plasmids containing KRASG12 mutants (i.e. […], G12C, G12V) are obtained from GeneScript. To generate KRASG12-dependent Ba/F3 models, Ba/F3 cells are transduced with retroviruses containing vectors that harbor KRASG12 isoforms. Platinum-E cells (Cell Biolabs) are used for retrovirus packaging. Retrovirus is added to Ba/F3 cells. To ensure infection, 4 μg/mL polybrene is added and cells are spinfected. […] Cells with an infection efficiency of 10% to 20% are further cultivated and puromycin selection with 1 μg/mL is initiated. As a control, parental Ba/F3 cells are used to show selection status. Selection is considered successful when parental Ba/F3 cells cultures died. To evaluate the transforming potential of KRASG12 mutations, the growth medium is no longer supplemented with IL-3. Ba/F3 cells harboring the empty vector are used as a control. Approximately ten days before conducting the experiments, puromycin is left out.
Compounds are added using an Access Labcyte Workstation with a Labcyte Echo 550 or 555 accoustic dispenser. All treatments are performed in technical duplicates. […] AlamarBlue™ (ThermoFisher), a viability stain, is added and fluorescence measured in the PerkinElmer Envision HTS Multilabel Reader. The raw data are imported into and analyzed with the Boehringer Ingelheim proprietary software MegaLab (curve fitting based on the program PRISM, GraphPad Inc.).

Sequence of KRAS (G12C)::SOS1 (P01116 other isoform, or with tags, fused parts or gaps G12C/C51S/C80L/C118S): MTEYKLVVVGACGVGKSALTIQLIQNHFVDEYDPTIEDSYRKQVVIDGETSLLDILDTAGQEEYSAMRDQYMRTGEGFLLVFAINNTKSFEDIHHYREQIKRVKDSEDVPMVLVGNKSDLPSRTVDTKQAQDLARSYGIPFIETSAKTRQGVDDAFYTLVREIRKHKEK

On to `COCc1cn(-c2cc(O[C@@H](C)[C@@H]3CCCN3C)nc(-c3noc4c3CCC[C@@]43CCCc4sc(N)c(C#N)c43)n2)nn1` [II-121], for which the results for the IC50 in test [1] and in test [2] were 2 nM and 11 nM, respectively.

Take `C[C@H](Oc1cc(N2CCOC3(COC3)C2)nc(-c2noc3c2CCC[C@@]32CCCc3sc(N)c(C#N)c32)n1)[C@@H]1CCCN1C` [II-77]: the IC50 in test [1] was determined as 2 nM; in test [2], 11 nM.

Take `C[C@H](Oc1cc(N2CCOC3(CC3)C2)nc(-c2noc3c2CCC[C@@]32CCCc3sc(N)c(C#N)c32)n1)[C@@H]1CCCN1C` [II-61]: the IC50 in test [1] was 2 nM; in test [2] it was 38 nM.

For `C[C@H](Oc1cc(-c2cc[nH]n2)nc(-c2noc3c2CCC[C@@]32CCCc3sc(N)c(C#N)c32)n1)[C@@H]1CCCN1C` [II-71], the concentration for half-maximal inhibition (IC50) in test [1] worked out at 2 nM; in test [2] it was 8 nM.

In the case of `C[C@H](Oc1cc(N2C[C@H](C)NC3(CC3)C2)nc(-c2onc3c2CCC[C@@]32CCCc3sc(N)c(C#N)c32)n1)[C@@H]1CCCN1C` [I-8], the IC50 in test [1] was 4 nM; in test [2], 258 nM.

With `C[C@H](Oc1cc(-c2ccn(C3COC3)n2)nc(-c2noc3c2CCC[C@@]32CCCc3sc(N)c(C#N)c32)n1)[C@@H]1CCCN1C` [II-109], the IC50 in test [1] came to 2 nM; in test [2] it was 18 nM.

With `CO[C@@H]1C[C@@H]([C@H](C)Oc2cc(-c3ccn(C4COC4)n3)nc(-c3noc4c3CCC[C@@]43CCCc4sc(N)c(C#N)c43)n2)N(C)C1` [II-107], the IC50 in test [1] came out at 2 nM; in test [2], 8 nM.

On to `C[C@H](Oc1cc(-c2ccn(C3CC3)n2)nc(-c2noc3c2CCC[C@@]32CCCc3sc(N)c(C#N)c32)n1)[C@@H]1CCCN1C` [II-98], for which the IC50 in test [1] was determined as 2 nM; in test [2], 14 nM.

Regarding `C[C@H](Oc1cc(N2CCC[C@H](O)C2)nc(-c2noc3c2CCC[C@@]32CCCc3sc(N)c(C#N)c32)n1)[C@@H]1CCCN1C` [II-57], the results for the IC50 in test [1] and in test [2] were 2 nM and 45 nM, respectively.

Regarding `C[C@H](Oc1cc(N2CC[C@H](N(C)C)C2)nc(-c2onc3c2CCC[C@@]32CCCc3sc(N)c(C#N)c32)n1)[C@@H]1CCCN1C` [I-11], the IC50 in test [1] was determined as 7 nM; in test [2], 416 nM.

Regarding `C[C@H](Oc1cc(-n2cc3c(n2)CCNC3)nc(-c2noc3c2CCC[C@@]32CCCc3sc(N)c(C#N)c32)n1)[C@@H]1CCCN1C` [II-53], in test [2], the IC50 was determined as 285 nM.

On to `C[C@H](Oc1cc(N2CCCC3(COC3)C2)nc(-c2noc3c2CCC[C@@]32CCCc3sc(N)c(C#N)c32)n1)[C@@H]1CCCN1C` [II-72], for which the IC50 in test [1] amounted to 2 nM; in test [2], 21 nM.

Consider `C[C@H](Oc1cc(N2Cc3cnn(C)c3C2)nc(-c2noc3c2CCC[C@@]32CCCc3sc(N)c(C#N)c32)n1)[C@@H]1CCCN1C` [II-63], for which the IC50 in test [1] stood at 3 nM; in test [2], 49 nM.

Consider `CO[C@@H]1C[C@@H]([C@H](C)Oc2cc(-c3cnn(C)n3)nc(-c3noc4c3CCC[C@@]43CCCc4sc(N)c(C#N)c43)n2)N(C)C1` [II-62], for which the values for the IC50 in test [1] and in test [2] were 3 nM and 17 nM, respectively.

With `C[C@H](Oc1cc(N2C[C@H](C)N[C@@H](C)C2)nc(-c2onc3c2CCC[C@@]32CCCc3sc(N)c(C#N)c32)n1)[C@@H]1CCCN1C` [I-6], the IC50 in test [1] stood at 5 nM; in test [2], 316 nM.

For the compound `C[C@H](Oc1cc(-c2cncnc2)nc(-c2noc3c2CCC[C@@]32CCCc3sc(N)c(C#N)c32)n1)[C@@H]1CCCN1C` [II-82], the IC50 in test [1] worked out at 3 nM; in test [2], 44 nM.

For `C[C@H](Oc1cc(-n2cncc3ccnc2-3)nc(-c2noc3c2CCC[C@@]32CCCc3sc(N)c(C#N)c32)n1)[C@@H]1CCCN1C` [II-105], the IC50 in test [1] was determined as 2 nM; in test [2], 6 nM.

For the compound `C[C@H](Oc1cc(N2CCNC3(CC3)C2)nc(-c2noc3c2CCC[C@@]32CCCc3sc(N)c(C#N)c32)n1)[C@@H]1CCCN1C` [II-54], the IC50 in test [1] was found to be 2 nM; in test [2], 157 nM.

For the compound `C[C@H](Oc1cc(N2CC[C@@H](O)C2)nc(-c2noc3c2CCC[C@@]32CCCc3sc(N)c(C#N)c32)n1)[C@@H]1CCCN1C` [II-66], the results for the IC50 in test [1] and in test [2] were 2 nM and 29 nM, respectively.

Take `C[C@H](Oc1cc(N2CCN(C)C2=O)nc(-c2noc3c2CCC[C@@]32CCCc3sc(N)c(C#N)c32)n1)[C@@H]1CCCN1C` [II-75]: the IC50 in test [1] is 2 nM; in test [2] it was 14 nM.

In the case of `C[C@H](Oc1cc(N2CCNC[C@]23CCOC3)nc(-c2noc3c2CCC[C@@]32CCCc3sc(N)c(C#N)c32)n1)[C@@H]1CCCN1C` [II-50], the IC50 in test [1] was 2 nM; in test [2] it was 393 nM.

Take `C[C@H](Oc1cc(-c2ccn(-c3ccccc3)n2)nc(-c2noc3c2CCC[C@@]32CCCc3sc(N)c(C#N)c32)n1)[C@@H]1CCCN1C` [II-89]: the IC50 in test [1] was 3 nM; in test [2], 18 nM.

As for `C[C@H](Oc1cc(-n2cnc3cccnc32)nc(-c2noc3c2CCC[C@@]32CCCc3sc(N)c(C#N)c32)n1)[C@@H]1CCCN1C` [II-65], the IC50 in test [1] was 4 nM; in test [2] it was 40 nM.

`C[C@H](Oc1cc(N2CCN(C)CC2)nc(-c2noc3c2CCC[C@@]32CCCc3sc(N)c(C#N)c32)n1)[C@@H]1CCCN1C` [II-55]: the IC50 was 4 nM in test [1] and 302 nM in test [2].

`C[C@H](Oc1cc(-n2ccncc2=O)nc(-c2noc3c2CCC[C@@]32CCCc3sc(N)c(C#N)c32)n1)[C@@H]1CCCN1C` [II-116]: the IC50 was 2 nM in test [1] and 8 nM in test [2].

With `C[C@H](Oc1cc(-c2ccncc2)nc(-c2noc3c2CCC[C@@]32CCCc3sc(N)c(C#N)c32)n1)[C@@H]1CCCN1C` [II-78], the values for the IC50 in test [1] and in test [2] were 2 nM and 14 nM, respectively.

Take `CO[C@@H]1C[C@@H]([C@H](C)Oc2cc(-c3ccn(C)n3)nc(-c3noc4c3CCC[C@@]43CCCc4sc(N)c(C#N)c43)n2)N(C)C1` [II-91]: the IC50 is 2 nM in test [1] and 8 nM in test [2].

Compound `Cc1nc(-c2cc(O[C@@H](C)[C@@H]3CCCN3C)nc(-c3noc4c3CCC[C@@]43CCCc4sc(N)c(C#N)c43)n2)cs1` [II-103] showed an IC50 in test [1] of 2 nM.

Turning to `C[C@H]1CN(C)CCCN1c1cc(N2CCN(C)CC2)nc(-c2onc3c2CCC[C@@]32CCCc3sc(N)c(C#N)c32)n1` [I-7], in test [1], the IC50 amounted to 23 nM.
